Results reported in BigSolDB 2.1.

COC(=O)/C=C/C(=O)OC
Settings | solubility (mole fraction)
in ethanol, 289.95 K | 0.00328
in ethanol, 294.45 K | 0.00465
in ethanol, 297.55 K | 0.00607
in ethanol, 303.15 K | 0.00908
in ethanol, 307.3 K | 0.0122
in ethanol, 311.1 K | 0.0157
in ethanol, 314.75 K | 0.0199
in ethanol, 318.65 K | 0.0253
in ethanol, 322.55 K | 0.0326
in ethanol, 327.35 K | 0.0431
in ethanol, 331.85 K | 0.058
in ethanol, 336.05 K | 0.0751
in isopropanol, 295.8 K | 0.00533
in isopropanol, 300.95 K | 0.00748
in isopropanol, 304.35 K | 0.0097
in isopropanol, 306.7 K | 0.0117
in isopropanol, 309.85 K | 0.0148
in isopropanol, 312.55 K | 0.0183
in isopropanol, 316.85 K | 0.025
in isopropanol, 320 K | 0.0318
in isopropanol, 322.8 K | 0.0396
in isopropanol, 326.25 K | 0.0486
in isopropanol, 329.75 K | 0.0629
in isopropanol, 332.85 K | 0.0785
in isopropanol, 335.8 K | 0.0997
in methanol, 297.45 K | 0.00749
in methanol, 301 K | 0.00948
in methanol, 305.55 K | 0.0122
in methanol, 309.17 K | 0.0152
in methanol, 312.85 K | 0.0189
in methanol, 316.45 K | 0.0231
in methanol, 319.37 K | 0.0279
in methanol, 322.28 K | 0.0335
in methanol, 325.93 K | 0.04
in methanol, 329.15 K | 0.0491
in methanol, 332.3 K | 0.06
in methanol, 337.65 K | 0.081
in n-propanol, 295.2 K | 0.00504
in n-propanol, 299.95 K | 0.00668
in n-propanol, 304.35 K | 0.00906
in n-propanol, 307.85 K | 0.0114
in n-propanol, 310.7 K | 0.0138
in n-propanol, 313.2 K | 0.0174
in n-propanol, 318.7 K | 0.0253
in n-propanol, 323.65 K | 0.0369
in n-propanol, 328.95 K | 0.0535
in n-propanol, 332.5 K | 0.0686
in n-propanol, 335.65 K | 0.087
in n-propanol, 338.15 K | 0.106
in n-propanol, 341.3 K | 0.136
in propylene glycol, 302.75 K | 0.000378
in propylene glycol, 307.05 K | 0.000797
in propylene glycol, 310.55 K | 0.00143
in propylene glycol, 314.25 K | 0.00255
in propylene glycol, 316.75 K | 0.00366
in propylene glycol, 320.05 K | 0.00586
in propylene glycol, 323.25 K | 0.00886
in propylene glycol, 327.95 K | 0.0149
in propylene glycol, 332.15 K | 0.023
in propylene glycol, 337.25 K | 0.0349
in propylene glycol, 342.35 K | 0.051
in propylene glycol, 347.15 K | 0.073
in water, 300.55 K | 9.27e-05
in water, 302.6 K | 0.000116
in water, 309.85 K | 0.000236
in water, 315.45 K | 0.000365
in water, 322.4 K | 0.000575
in water, 328.05 K | 0.000781
in water, 333.25 K | 0.000989
in water, 337.05 K | 0.00113
in water, 340.65 K | 0.00132
in water, 344.45 K | 0.00148
